Measurements reported in US20140005163A1 (NOVARTIS AG, priority 2010, published 2014).
pIC50: −log10 of the molar value.

Legend:
PI3K delta = target: T1, PI3K delta (Homo sapiens, UniProt O00329); assay: PI3K delta kinase assay (Kinase-Glo luminescence); type: biochemical
T1 construct: for the full-length p110-d subunit are generated and fused by overlapping PCR; p85(iSH2) fusion partner (see partner chain) (N); His tag (C); made in house; host or cells: baculovirus; Tn5 (Trichoplusia ni) or TiniPro insect cells
How it was run: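 Construct BV-1060, p85 iSH2–linker–full-length p110δ, His-tagged, at 10 nM, with 1 μM ATP and 10 μg/mL phosphatidylinositol in pH 7.5 Tris, 3 mM MgCl2, 50 mM NaCl, 0.05% CHAPS. Run 60 min at room temperature; remaining ATP read by Kinase-Glo luminescence; IC50 from 4-parameter logistic fit of 8 concentrations.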

[1] = tested on: PKB Ser473 phosphorylation in Rat1-myr-HA-p110 alpha cells; assay: Reverse protein array assay, PKB Ser473 phosphorylation in Rat1-myr-p110 alpha cells; type: cell-based; settings: 0.5 h, pAkt Ser473, 30 minutes compound incubation, read-out: p-PKB IC50
How it was run: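 After at least 20 h of culture, the p110 isoform-transfected Rat1 lines receive compound in an 8-step dilution series, keeping DMSO at 0.2%, for 30 minutes. Cells are then lysed and lysates arrayed on chips for fluorescence detection of Ser473-phosphorylated PKB.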

T1 sequence (O00329 with tags, fused parts or gaps limits assumed): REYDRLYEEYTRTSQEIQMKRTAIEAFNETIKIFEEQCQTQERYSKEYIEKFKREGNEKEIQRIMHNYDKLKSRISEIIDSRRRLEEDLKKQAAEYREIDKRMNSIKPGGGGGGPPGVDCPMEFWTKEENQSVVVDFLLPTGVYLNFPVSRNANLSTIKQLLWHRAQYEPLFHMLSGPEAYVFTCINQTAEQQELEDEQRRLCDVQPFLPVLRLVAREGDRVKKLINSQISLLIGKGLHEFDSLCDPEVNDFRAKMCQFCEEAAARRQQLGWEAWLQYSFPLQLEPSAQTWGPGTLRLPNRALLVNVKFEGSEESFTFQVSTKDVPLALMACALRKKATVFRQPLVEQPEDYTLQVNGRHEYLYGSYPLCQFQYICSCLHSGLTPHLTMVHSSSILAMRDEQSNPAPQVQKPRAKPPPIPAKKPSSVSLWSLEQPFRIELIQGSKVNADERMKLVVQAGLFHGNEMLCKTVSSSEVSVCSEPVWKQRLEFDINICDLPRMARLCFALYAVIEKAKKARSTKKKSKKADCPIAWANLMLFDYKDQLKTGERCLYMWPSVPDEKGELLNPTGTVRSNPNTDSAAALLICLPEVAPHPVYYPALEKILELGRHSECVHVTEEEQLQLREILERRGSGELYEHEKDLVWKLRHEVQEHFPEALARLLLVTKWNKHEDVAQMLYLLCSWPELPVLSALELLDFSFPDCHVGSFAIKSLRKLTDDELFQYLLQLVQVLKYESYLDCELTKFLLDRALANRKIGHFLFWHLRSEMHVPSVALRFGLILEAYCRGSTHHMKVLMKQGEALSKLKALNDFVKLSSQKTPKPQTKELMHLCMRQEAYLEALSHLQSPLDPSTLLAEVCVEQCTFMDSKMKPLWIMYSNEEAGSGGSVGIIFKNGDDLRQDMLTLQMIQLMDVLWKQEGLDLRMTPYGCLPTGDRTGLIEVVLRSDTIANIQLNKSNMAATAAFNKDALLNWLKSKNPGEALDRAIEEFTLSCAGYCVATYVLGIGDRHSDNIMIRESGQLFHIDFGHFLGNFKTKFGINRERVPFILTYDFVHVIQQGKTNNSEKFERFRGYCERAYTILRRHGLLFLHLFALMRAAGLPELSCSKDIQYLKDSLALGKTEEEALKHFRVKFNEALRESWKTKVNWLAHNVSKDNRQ

SMILES | pIC50 (PI3K delta) | pIC50 [1]
CCNc1cc(-c2ccc3ncc4c(c3c2)n(-c2cn(C)nc2C)c(=O)n4C)cnc1CO [Example 155.1, 1-(1,3-Dimethyl-1H-pyrazol-4-yl)-8-(5-ethylamino-6-hydroxymethyl-pyridin-3-yl)-3-methyl-1,3-dihydro-imidazo[4,5-c]quinolin-2-one] | 7.85 | 7.89
CNc1cc(-c2ccc3ncc4c(c3c2)n(-c2cn(C(C)C)nc2C)c(=O)n4C)cnc1CO [Example 158.2, 8-(6-Hydroxymethyl-5-methylamino-pyridin-3-yl)-1-(1-isopropyl-3-methyl-1H-pyrazol-4-yl)-3-methyl-1,3-dihydro-imidazo[4,5-c]quinolin-2-one] | 8.10 | 8.15
CNc1cc(-c2ccc3ncc4c(c3c2)n(-c2cn(C)nc2Cl)c(=O)n4C)cnc1CO [Example 158.3, 1-(3-Chloro-1-methyl-1H-pyrazol-4-yl)-8-(6-hydroxymethyl-5-methylamino-pyridin-3-yl)-3-methyl-1,3-dihydro-imidazo[4,5-c]quinolin-2-one] | 8.40 | > 8.30
CNc1cc(-c2ccc3ncc4c(c3c2)n(-c2cn(C)nc2C)c(=O)n4C)cnc1C [Example 163, 1-(1,3-Dimethyl-1H-pyrazol-4-yl)-3-methyl-8-(6-methyl-5-methylamino-pyridin-3-yl)-1,3-dihydro-imidazo[4,5-c]quinolin-2-one] | 8.30 | > 8.30
CCN(C)c1cc(-c2ccc3ncc4c(c3c2)n(-c2cn(C)nc2C)c(=O)n4C)cnc1C [Example 165, 1-(1,3-Dimethyl-1H-pyrazol-4-yl)-8-[5-(ethyl-methyl-amino)-6-methyl-pyridin-3-yl]-3-methyl-1,3-dihydro-imidazo[4,5-c]quinolin-2-one] | 8.40 | 8.22
Cc1nn(C(C)C)cc1-n1c(=O)n(C)c2cnc3ccc(-c4cnc(N)c(CO)c4)cc3c21 [Example 169.1, 8-(6-Amino-5-hydroxymethyl-pyridin-3-yl)-1-(1-isopropyl-3-methyl-1H-pyrazol-4-yl)-3-methyl-1,3-dihydro-imidazo[4,5-c]quinolin-2-one] | 7.66 | 7.57
Cc1nn(C)c(C)c1-n1c(=O)n(C)c2cnc3ccc(-c4cnc(N)c(CO)c4)cc3c21 [Example 169.2, 8-(6-Amino-5-hydroxymethyl-pyridin-3-yl)-3-methyl-1-(1,3,5-trimethyl-1H-pyrazol-4-yl)-1,3-dihydro-imidazo[4,5-c]quinolin-2-one] | 7.57 | 6.34
Cc1nn(C)cc1-n1c(=O)n(C)c2cnc3ccc(-c4cncc(NC5CCC5)c4)cc3c21 [Example 172, 8-(5-Cyclobutylamino-pyridin-3-yl)-1-(1,3-dimethyl-1H-pyrazol-4-yl)-3-methyl-1,3-dihydro-imidazo[4,5-c]quinolin-2-one] | 7.48 | 8.05
Cc1nn(C)cc1-n1c(=O)n(C)c2cnc3ccc(-c4cncc(N(C)C(C)C)c4)cc3c21 [Example 173, 1-(1,3-Dimethyl-1H-pyrazol-4-yl)-8-[5-(isopropyl-methyl-amino)-pyridin-3-yl]-3-methyl-1,3-dihydro-imidazo[4,5-c]quinolin-2-one] | 7.43 | 7.80
Cc1nn(C)cc1-n1c(=O)n(C)c2cnc3ccc(-c4cncc(N(C)C)c4)cc3c21 [Example 178, 8-(5-Dimethylamino-pyridin-3-yl)-1-(1,3-dimethyl-1H-pyrazol-4-yl)-3-methyl-1,3-dihydro-imidazo[4,5-c]quinolin-2-one] | 7.07 | 7.70
CNc1cncc(-c2ccc3ncc4c(c3c2)n(-c2cn(C(C)C)nc2C)c(=O)n4C)c1 [Example 180.2, 1-(1-Isopropyl-3-methyl-1H-pyrazol-4-yl)-3-methyl-8-(5-methylamino-pyridin-3-yl)-1,3-dihydro-imidazo[4,5-c]quinolin-2-one] | 8.22 | > 8.30
CCOc1cc(-c2ccc3ncc4c(c3c2)n(-c2cn(C)nc2C)c(=O)n4C)cnc1CC [Example 187, 1-(1,3-Dimethyl-1H-pyrazol-4-yl)-8-(5-ethoxy-6-ethyl-pyridin-3-yl)-3-methyl-1,3-dihydro-imidazo[4,5-c]quinolin-2-one] | 8.10 | 8.22
CCc1ncc(-c2ccc3ncc4c(c3c2)n(-c2cn(C)nc2C)c(=O)n4C)cc1O [Example 188, 1-(1,3-Dimethyl-1H-pyrazol-4-yl)-8-(6-ethyl-5-hydroxy-pyridin-3-yl)-3-methyl-1,3-dihydro-imidazo[4,5-c]quinolin-2-one] | 8.40 | 8.10
CCn1cc(-n2c(=O)n(C)c3cnc4ccc(-c5cnc(COC)c(OC(C)C)c5)cc4c32)c(C)n1 [Example 191.2, 1-(1-Ethyl-3-methyl-1H-pyrazol-4-yl)-8-(5-isopropoxy-6-methoxymethyl-pyridin-3-yl)-3-methyl-1,3-dihydro-imidazo[4,5-c]quinolin-2-one] | 7.96 | 7.57
Cc1nn(C)cc1-n1c(=O)n(C)c2cnc3ccc(-c4cnc(CO)c(OC(CF)CF)c4)cc3c21 [Example 192, 1-(1,3-Dimethyl-1H-pyrazol-4-yl)-8-[5-(2-fluoro-1-fluoromethyl-ethoxy)-6-hydroxymethyl-pyridin-3-yl]-3-methyl-1,3-dihydro-imidazo[4,5-c]quinolin-2-one] | 8.30 | 7.92
CCOCc1ncc(-c2ccc3ncc4c(c3c2)n(-c2cn(C)nc2C)c(=O)n4C)cc1OC [Example 196.2, 1-(1,3-Dimethyl-1H-pyrazol-4-yl)-8-(6-ethoxymethyl-5-methoxy-pyridin-3-yl)-3-methyl-1,3-dihydro-imidazo[4,5-c]quinolin-2-one] | 6.80 | 6.89
CCOc1cc(-c2ccc3ncc4c(c3c2)n(-c2cn(C(C)C)nc2C)c(=O)n4C)cnc1COC [Example 197.2, 8-(5-Ethoxy-6-methoxymethyl-pyridin-3-yl)-1-(1-isopropyl-3-methyl-1H-pyrazol-4-yl)-3-methyl-1,3-dihydro-imidazo[4,5-c]quinolin-2-one] | 7.62 | 7.11
COCc1ccc(-c2ccc3ncc4c(c3c2)n(-c2cn(C)nc2Cl)c(=O)n4C)cn1 [Example 203, 1-(3-Chloro-1-methyl-1H-pyrazol-4-yl)-8-(6-methoxymethyl-pyridin-3-yl)-3-methyl-1,3-dihydro-imidazo[4,5-c]quinolin-2-one] | 8.10 | 8.00
CCNc1ncc(-c2ccc3ncc4c(c3c2)n(-c2cn(C)nc2C)c(=O)n4C)cc1COC [Example 206.1, 1-(1,3-Dimethyl-1H-pyrazol-4-yl)-8-(6-ethylamino-5-methoxymethyl-pyridin-3-yl)-3-methyl-1,3-dihydro-imidazo[4,5-c]quinolin-2-one] | 8.15 | 7.96
CCNc1ncc(-c2ccc3ncc4c(c3c2)n(-c2c(C)nn(C)c2C)c(=O)n4C)cc1COC [Example 206.2, 8-(6-Ethylamino-5-methoxymethyl-pyridin-3-yl)-3-methyl-1-(1,3,5-trimethyl-1H-pyrazol-4-yl)-1,3-dihydro-imidazo[4,5-c]quinolin-2-one] | 7.24 | 6.90
CCc1ncc(-c2ccc3ncc4c(c3c2)n(-c2cn(C)nc2C)c(=O)n4C)cc1N [Example 208, 8-(5-Amino-6-ethyl-pyridin-3-yl)-1-(1,3-dimethyl-1H-pyrazol-4-yl)-3-methyl-1,3-dihydro-imidazo[4,5-c]quinolin-2-one] | 8.22 | 7.70
